17 compounds from patent US20250230153A1, “2,3-DIHYDROBENZO[B][1,4]DIOXIN-6-YL CONTAINING COMPOUNDS USEFUL AS IMMUNOMODULATORS” (BRISTOL-MYERS SQUIBB COMPANY, priority 2021, published 2025) can be followed below.

In the assay the target is PD-1/PD-L1 (Homo sapiens (Human), UniProt Q9NZQ7). Description: PD-1/PD-L1 Homogenous Time-Resolved Fluorescence (HTRF) binding assay. Particulars: PD-1-Ig (20 nM final)/PD-L1-His (10 nM final) binding assay. The text has this: The ability of the compounds of the invention to bind to PD-L1 was investigated using a PD-1/PD-L1 Homogenous Time-Resolved Fluorescence (HTRF) binding assay.
PD-1/PD-L1, sequence (Q9NZQ7 18-239): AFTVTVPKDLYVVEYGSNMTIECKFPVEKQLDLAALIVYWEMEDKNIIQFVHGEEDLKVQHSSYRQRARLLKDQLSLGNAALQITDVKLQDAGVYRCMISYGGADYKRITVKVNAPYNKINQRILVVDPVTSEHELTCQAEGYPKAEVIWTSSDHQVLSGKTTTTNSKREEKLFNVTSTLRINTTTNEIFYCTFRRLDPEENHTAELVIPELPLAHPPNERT
The interaction of PD-1 and PD-L1 can be assessed using soluble, purified preparations of the extracellular domains of the two proteins. The PD-1 and PD-L1 protein extracellular domains were expressed as fusion proteins with detection tags, for PD-1, the tag was the Fc portion of Immunoglobulin (PD-1-Ig) and for PD-L1 it was the 6 histidine motif (PD-L1-His). All binding studies were performed in an HTRF assay buffer consisting of dPBS supplemented with 0.1% […] bovine serum albumin and 0.05% (v/v) Tween-20. For the h/PD-L1-His binding assay, inhibitors were pre-incubated with PD-L1-His (10 nM final) for 15m in 4 μl of assay buffer, followed by addition of PD-1-Ig (20 nM final) in 1 μl of assay buffer and further incubation for 15 m. HTRF detection was achieved using europium crypate-labeled anti-Ig (1 nM final) and allophycocyanin (APC) labeled anti-His (20 nM final). Antibodies were diluted in HTRF detection buffer and 5 μl was dispensed on top of the binding reaction. The reaction mixture was allowed to equilibrate for 30 minutes and the resulting signal (665 nm/620 nm ratio) was obtained using an EnVision fluorometer. Additional binding assays were established between the human proteins PD-1-Ig/PD-L2-His (20 & 5 nM, respectively) and CD80-His/PD-L1-Ig (100 & 10 nM, respectively).
Recombinant Proteins: Human PD-1 (25-167) with a C-terminal human Fc domain of immunoglobulin G (Ig) epitope tag [hPD-1 (25-167)-3S-IG] and human PD-L1 (18-239) with a C-terminal His epitope tag [hPD-L1(18-239)-TVMV-His] were expressed in HEK293T cells and purified sequentially by ProteinA affinity chromatography and size exclusion chromatography. Human PD-L2-His and CD80-His was obtained through commercial sources.
Homogenous Time-Resolved Fluorescence (HTRF) Assays of Binding of Soluble PD-1 to Soluble PD-L1. Soluble PD-1 and soluble PD-L1 refers to proteins with carboxyl-end truncations that remove the transmembrane-spanning regions and are fused to heterologous sequences, specifically the Fc portion of the human immunoglobuling G sequence (Ig) or the hexahistidine epitope tag (His). All binding studies were performed in an HTRF assay buffer consisting of dPBS supplemented with 0.1% (w/v) bovine serum albumin and 0.05% (v/v) Tween-20. For the PD-1-Ig/PD-L1-His binding assay, inhibitors were pre-incubated with PD-L1-His (10 nM final) for 15m in 4 μl of assay buffer, followed by addition of PD-1-Ig (20 nM final) in 1 μl of assay buffer and further incubation for 15 m. PD-L1 fusion proteins from either human, cynomologous macaques, mouse, or other species were used. HTRF detection was achieved using europium crypate-labeled anti-Ig monoclonal antibody (1 nM final) and allophycocyanin (APC) labeled anti-His monoclonal antibody (20 nM final). Antibodies were diluted in HTRF detection buffer and 5 μl was dispensed on top of binding reaction. The reaction was allowed to equilibrate for 30 minutes and signal (665 nm/620 nm ratio) was obtained using an EnVision fluorometer. Additional binding assays were established between PD-1-Ig/PD-L2-His (20 and 5 nM, respectively), CD80-His/PD-L1-Ig (100 and 10 nM, respectively) and CD80-His/CTLA4-Ig (10 and 5 nM, respectively).
Recombinant Proteins. Carboxyl-truncated human PD-1 (amino acids 25-167) with a C-terminal human Ig epitope tag [hPD-1 (25-167)-3S-IG] and human PD-L1 (amino acids 18-239) with a C-terminal His epitope tag [hPD-L1(19-239)-tobacco vein mottling virus protease cleavage site (TVMV)-His] were expressed in HEK293T cells and purified sequentially by recombinant Protein A affinity chromatography and size exclusion chromatography. Human PD-L2-His (Sino Biologicals), CD80-His (Sino Biologicals), CTLA4-Ig (RnD Systems) were all obtained through commercial sources.
For orientation: TR-FRET usually uses a lanthanide donor and a delayed reading to cut background.
One may read the IC50 as the concentration that gives 50% inhibition. High values mean lower potency, low ones higher potency. With `Cc1c(COc2cc(OCCCCN3CC[C@@H](O)C3)c(CNC(C)(CO)CO)cc2Cl)cccc1-c1ccc2c(c1)OCCO2` [Example 1027, (R)-2-((5-Chloro-4-((3-(2,3-dihydrobenzo[b][1,4]dioxin-6-yl)-2-methylbenzyl)oxy)-2-(4-(3-hydroxypyrrolidin-1-yl)butoxy)benzyl)amino)-2-methylpropane-1,3-diol], the IC50 is 4.1 nM. This counts as single-digit nanomolar. The result for `COC(=O)C1(O)CCN(CCOc2cc(OCc3cccc(-c4ccc5c(c4)OCCO5)c3C)c(Cl)cc2CNC(C)(CO)CO)CC1` [Example 1053, Methyl 1-(2-(4-chloro-5-((3-(2,3-dihydrobenzo[b][1,4]dioxin-6-yl)-2-methylbenzyl)oxy)-2-(((1,3-dihydroxy-2-methylpropan-2-yl)amino)methyl)phenoxy)ethyl)-4-hydroxypiperidine-4-carboxylate] reads 1.4 nM; that for `Cc1c(COc2cc(OCc3cncc(S(N)(=O)=O)c3)c(CN[C@@](C)(CO)C(=O)O)cc2Cl)cccc1-c1ccc2c(c1)OCCO2` [Example 1019, (S)-2-((5-Chloro-4-((3-(2,3-dihydrobenzo[b][1,4]dioxin-6-yl)-2-methylbenzyl)oxy)-2-((5-sulfamoylpyridin-3-yl)methoxy)benzyl)amino)-3-hydroxy-2-methylpropanoic acid], 4.1 nM. The result for `Cc1c(COc2cc(OCCN3CC[C@@H](O)C3)c(CNC(C)(CO)CO)cc2Cl)cccc1-c1ccc2c(c1)OCCO2` [Example 1024, (R)-2-((5-Chloro-4-((3-(2,3-dihydrobenzo[b][1,4]dioxin-6-yl)-2-methylbenzyl)oxy)-2-(2-(3-hydroxypyrrolidin-1-yl)ethoxy)benzyl)amino)-2-methylpropane-1,3-diol] reads 0.5 nM; that for `Cc1c(COc2cc(OCC(=O)N3CCS(=O)(=O)CC3)c(CN3CCCC[C@H]3C(=O)O)cc2Cl)cccc1-c1ccc2c(c1)OCCO2` [Example 1061, (S)-1-(5-chloro-4-((3-(2,3-dihydrobenzo[b][1,4]dioxin-6-yl)-2-methylbenzyl)oxy)-2-(2-(1,1-dioxidothiomorpholino)-2-oxoethoxy)benzyl)piperidine-2-carboxylic acid], 455 nM. The result for `Cc1c(COc2cc(OCCN3CCOCC3)c(CN3CCCC[C@H]3C(=O)O)cc2Cl)cccc1-c1ccc2c(c1)OCCO2` [Example 1038, (S)-1-(5-Chloro-4-((3-(2,3-dihydrobenzo[b][1,4]dioxin-6-yl)-2-methylbenzyl)oxy)-2-(2-morpholinoethoxy)benzyl)piperidine-2-carboxylic acid] reads 5.7 nM; that for `Cc1c(COc2cc(OCC3CCCN(C)C3)c(CN[C@@H](CO)C(=O)O)cc2Cl)cccc1-c1ccc2c(c1)OCCO2` (stereo partly drawn) [Example 2004, (2S)-2-((5-chloro-4-((3-(2,3-dihydrobenzo[b][1,4]dioxin-6-yl)-2-methylbenzyl)oxy)-2-((1-methylpiperidin-3-yl)methoxy)benzyl)amino)-3-hydroxypropanoic acid], 5.8 nM; that for `Cc1c(COc2cc(OCCCC(F)(F)F)c(CNC(C)(CO)CO)cc2Cl)cccc1-c1ccc2c(c1)OCCO2` [Example 1030, 2-((5-Chloro-4-((3-(2,3-dihydrobenzo[b][1,4]dioxin-6-yl)-2-methylbenzyl)oxy)-2-(4,4,4-trifluorobutoxy)benzyl)amino)-2-methylpropane-1,3-diol], 6.5 nM. The compound `Cc1c(COc2cc(OCCN3CCCC(O)(C(F)(F)F)C3)c(CN3CCCC[C@H]3C(=O)O)cc2Cl)cccc1-c1ccc2c(c1)OCCO2` (stereo partly drawn) [Example 1058, (2S)-1-(5-Chloro-4-((3-(2,3-dihydrobenzo[b][1,4]dioxin-6-yl)-2-methylbenzyl)oxy)-2-(2-(3-hydroxy-3-(trifluoromethyl)piperidin-1-yl)ethoxy)benzyl)piperidine-2-carboxylic acid] showed an IC50 of 21.8 nM. In the case of `COC(=O)C1(O)CCN(CCOc2cc(OCc3cccc(-c4ccc5c(c4)OCCO5)c3C)c(Cl)cc2CN2CCCC[C@H]2C(=O)O)CC1` [Example 1051, (S)-1-(5-Chloro-4-((3-(2,3-dihydrobenzo[b][1,4]dioxin-6-yl)-2-methylbenzyl)oxy)-2-(2-(4-hydroxy-4-(methoxycarbonyl)piperidin-1-yl)ethoxy)benzyl)piperidine-2-carboxylic acid] it was 1 nM. Compound `Cc1c(COc2cc(OC[C@H](C)CO)c(CN[C@](C)(CO)C(=O)O)cc2Cl)cccc1-c1ccc2c(c1)OCCO2` [Example 1032, (R)-2-((5-Chloro-4-((3-(2,3-dihydrobenzo[b][1,4]dioxin-6-yl)-2-methylbenzyl)oxy)-2-((R)-3-hydroxy-2-methylpropoxy)benzyl)amino)-3-hydroxy-2-methylpropanoic acid] returned an IC50 of 4.4 nM. The result for `Cc1c(COc2cc(OCc3cccc(-c4nc(CC(=O)O)cs4)c3)c(CN[C@@](C)(CO)C(=O)O)cc2Cl)cccc1-c1ccc2c(c1)OCCO2` [Example 1013, (S)-2-((2-((3-(4-(Carboxymethyl)thiazol-2-yl)benzyl)oxy)-5-chloro-4-((3-(2,3-dihydrobenzo[b][1,4]dioxin-6-yl)-2-methylbenzyl)oxy)benzyl)amino)-3-hydroxy-2-methylpropanoic acid] reads 72 nM; that for `Cc1c(COc2cc(OCCN3CCCC(O)(C(F)(F)F)C3)c(CN[C@](C)(CO)C(=O)O)cc2Cl)cccc1-c1ccc2c(c1)OCCO2` (stereo partly drawn) [Example 1057, (2R)-2-((5-Chloro-4-((3-(2,3-dihydrobenzo[b][1,4]dioxin-6-yl)-2-methylbenzyl)oxy)-2-(2-(3-hydroxy-3-(trifluoromethyl)piperidin-1-yl)ethoxy)benzyl)amino)-3-hydroxy-2-methylpropanoic acid], 6.2 nM; that for `Cc1c(COc2cc(OCC3CCCCC3)c(CN3CCCC[C@H]3C(=O)O)cc2Cl)cccc1-c1ccc2c(c1)OCCO2` [Example 1040, (S)-1-(5-Chloro-2-(cyclohexylmethoxy)-4-((3-(2,3-dihydrobenzo[b][1,4]dioxin-6-yl)-2-methylbenzyl)oxy)benzyl)piperidine-2-carboxylic acid], 164 nM. The result for `Cc1c(COc2cc(OCc3cncc(S(=O)(=O)CCC(=O)O)c3)c(CN3CCCC[C@H]3C(=O)O)cc2Cl)cccc1-c1ccc2c(c1)OCCO2` [Example 1012, (S)-1-(2-((5-((2-Carboxyethyl)sulfonyl)pyridin-3-yl)methoxy)-5-chloro-4-((3-(2,3-dihydrobenzo[b]1[1,4]dioxin-6-yl)-2-methylbenzyl)oxy)benzyl)piperidine-2-carboxylic acid] reads 3 nM; that for `Cc1c(COc2cc(OCCCC(F)(F)F)c(CN3CCCC[C@H]3C(=O)O)cc2Cl)cccc1-c1ccc2c(c1)OCCO2` [Example 1028, (S)-1-(5-Chloro-4-((3-(2,3-dihydrobenzo[b][1,4]dioxin-6-yl)-2-methylbenzyl)oxy)-2-(4,4,4-trifluorobutoxy)benzyl)piperidine-2-carboxylic acid], 1.8 nM; that for `Cc1c(COc2cc(OCc3cncc(C(=O)NS(C)(=O)=O)c3)c(CN3CCCC[C@H]3C(=O)O)cc2Cl)cccc1-c1ccc2c(c1)OCCO2` [Example 1021, (S)-1-(5-Chloro-4-((3-(2,3-dihydrobenzo[b][1,4]dioxin-6-yl)-2-methylbenzyl)oxy)-2-((5-((methylsulfonyl)carbamoyl)pyridin-3-yl)methoxy)benzyl)piperidine-2-carboxylic acid], 5.7 nM.
